IC50 data for 27 molecules are collected here from patent publication US10301267B2, “Compounds” (AstraZeneca AB, priority 2006, dated 2019).

The target of the assay is FGFR1 active kinase (Homo sapiens, UniProt P11362). Nature of the assay: FGFR Kinase assay - Caliper Echo Dosing. The format is biochemical. Conditions: FGFR1 7.2 nM, 408 uM ATP, acoustic dosing; geometric mean of n. As to the method: FGFR Kinase Assay—Caliper Echo Dosing
Chain of FGFR1 active kinase (P11362 22-822): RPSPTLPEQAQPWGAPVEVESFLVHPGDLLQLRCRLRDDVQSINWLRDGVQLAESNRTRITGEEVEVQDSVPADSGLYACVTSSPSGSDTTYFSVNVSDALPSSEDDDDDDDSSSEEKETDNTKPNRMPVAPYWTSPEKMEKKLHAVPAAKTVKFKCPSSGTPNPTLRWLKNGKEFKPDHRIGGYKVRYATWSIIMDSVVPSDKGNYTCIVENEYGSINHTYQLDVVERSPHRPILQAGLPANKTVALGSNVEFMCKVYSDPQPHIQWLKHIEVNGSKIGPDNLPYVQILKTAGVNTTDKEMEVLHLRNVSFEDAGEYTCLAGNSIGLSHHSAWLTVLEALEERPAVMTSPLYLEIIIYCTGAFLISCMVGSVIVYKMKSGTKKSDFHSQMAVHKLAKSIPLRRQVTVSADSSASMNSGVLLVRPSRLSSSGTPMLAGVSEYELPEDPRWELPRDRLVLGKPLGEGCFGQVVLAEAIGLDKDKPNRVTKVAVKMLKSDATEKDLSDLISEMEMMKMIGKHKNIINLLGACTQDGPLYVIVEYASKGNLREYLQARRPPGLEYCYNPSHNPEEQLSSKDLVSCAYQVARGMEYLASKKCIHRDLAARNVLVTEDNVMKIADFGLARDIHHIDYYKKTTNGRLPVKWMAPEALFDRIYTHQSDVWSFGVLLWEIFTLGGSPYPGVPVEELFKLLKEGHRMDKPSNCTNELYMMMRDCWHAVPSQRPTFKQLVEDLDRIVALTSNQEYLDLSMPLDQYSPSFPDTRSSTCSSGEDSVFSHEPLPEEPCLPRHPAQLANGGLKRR
To determine inhibition of FGFR activity, kinase assays were conducted using Caliper technology.
Kinase activity assays were performed in Greiner 384-well low volume plates, with a total reaction volume of 12 ul per well. Final concentration of FGFR1 active kinase in each reaction well was 7.2 nM. The substrate for each assay was a custom peptide with fluorescent tag (13 amino acids in length, […] with the fluorescene tag on the first K).
Compounds were dispensed directly in to assay plates using a Labcyte Echo 550 acoustic droplet ejection unit. Each well received 120 nl of DMSO containing compound such that the final concentration of compound in the assay prior to the addition of the stop solution ranged between 30 uM and 30 pM. In addition to compounds each plate carried maximum and minimum control wells, the max wells contained 120 nl of DMSO and the min wells contained 120 nl of 10 mM staurosporine (LC Laboratories, MA 01801, USA Catalogue No. S-9300). The Enzyme (at 7.2 nM [final]) and Substrate (at 3.6 uM [final]) were added separately to the compound plates, in reaction buffer [comprising: 50 mM MOPS (Sigma, Catalogue No. M1254)—pH 6.5, 0.004% Triton (Sigma, Catalogue No. X-100), 2.4 mM DTT, 12 mM MgCl2, 408 uM ATP] resulting in a final DMSO concentration in the reaction mix of 1%.
Assay plates were incubated at room temperature for 1.5 h, before the reaction was stopped with the addition of buffer [comprising: 100 mM HEPES—pH7.5, 0.033% Brij-35 (Sigma Catalogue No. B4184), 0.22% Caliper Coating Reagent #3 (Caliper Life Sciences Catalogue No. 760050), 88 mM EDTA, 5% DMSO]. Stopped assay plates were then read using the Caliper LabChip® LC3000 (which uses microfludics to measure a shift in mobility between fluorescent labelled peptide and the FGFR1 kinase—phosphorylated form of this peptide).
In the assay, compounds were tested at a range of concentrations. […] Percentage inhibition at 1 uM, as expressed herein, is a calculated value based on the curve fit that was generated experimentally. From the fitted curve plot, the effect of compound at a concentration of 1 uM was calculated as a percentage inhibition. The IC50 is the concentration of compound, which inhibits FGFR1 kinase activity by 50% in the context of this assay. This value is calculated using a standard curve fitting software package Origin™.
As to `C=CCN1CCCN(c2ccc(C(=O)Nc3cc(CCc4cc(OC)cc(OC)c4)n[nH]3)cc2)CC1` [Example 164, N-[5-[2-(3,5-dimethoxyphenyl)ethyl]-2H-pyrazol-3-yl]-4-(4-prop-2-enyl-1,4-diazepan-1-yl)benzamide], it took 0.78 nM to reach half-maximal inhibition (IC50). For the molecule `COc1cc(CCc2cc(NC(=O)c3cnc(C4CCN(C)CC4)cn3)[nH]n2)cc(OC)c1` [Example 152, N-[5-[2-(3,5-dimethoxyphenyl)ethyl]-2H-pyrazol-3-yl]-5-(1-methylpiperidin-4-yl)pyrazine-2-carboxamide], half-maximal inhibition (IC50) required 1.3 nM. As for `C=CCN1CCCN(c2ncc(C(=O)Nc3cc(CCc4cc(OC)cc(OC)c4)n[nH]3)cn2)CC1` [Example 175, N-[5-[2-(3,5-dimethoxyphenyl)ethyl]-2H-pyrazol-3-yl]-2-(4-prop-2-enyl-1,4-diazepan-1-yl)pyrimidine-5-carboxamide], the figure is 7 nM; as for `CCN1CCCN(c2cnc(C(=O)Nc3cc(CCc4cc(OC)cc(OC)c4)n[nH]3)cn2)CC1` [Example 169, N-[5-[2-(3,5-dimethoxyphenyl)ethyl]-2H-pyrazol-3-yl]-5-(4-ethyl-1,4-diazepan-1-yl)pyrazine-2-carboxamide], 2.7 nM; as for `COc1cc(COc2cc(NC(=O)c3cnc(N4CCN(C)C(C)C4)nc3)[nH]n2)cc(OC)c1` (stereo not drawn) [Example 132, N-[5-[(3,5-dimethoxyphenyl)methoxy]-2H-pyrazol-3-yl]-2-(3,4-dimethylpiperazin-1-yl)pyrimidine-5-carboxamide], 3.6 nM. For the molecule `COCCN1CCC(c2ccc(C(=O)Nc3cc(CCc4cc(OC)cc(OC)c4)n[nH]3)cc2)CC1` [Example 148, N-[5-[2-(3,5-dimethoxyphenyl)ethyl]-2H-pyrazol-3-yl]-4-[1-(2-methoxyethyl)piperidin-4-yl]benzamide], the 50% inhibitory concentration (IC50) (usually the concentration needed to halve the response being measured) came out at 0.87 nM. This IC50 is about 4.1-fold lower than that of the molecule before. As to `COc1cc(COc2cc(NC(=O)c3ccc(N4C[C@@H](C)N[C@@H](C)C4)s3)[nH]n2)cc(OC)c1` [Example 147, N-[5-[(3,5-dimethoxyphenyl)methoxy]-2H-pyrazol-3-yl]-5-[(3S,5R)-3,5-dimethylpiperazin-1-yl]thiophene-2-carboxamide], the midpoint of inhibition, the IC50, lay at 1.8 nM. In turn, `COc1cc(COc2cc(NC(=O)c3ccc(N4CCN(C)C(C)C4)s3)[nH]n2)cc(OC)c1` (stereo not drawn) [Example 97, N-[5-[(3,5-dimethoxyphenyl)methoxy]-2H-pyrazol-3-yl]-5-(3,4-dimethylpiperazin-1-yl)thiophene-2-carboxamide] registered an IC50 of 0.46 nM.

The molecule `COc1cc(CCc2cc(NC(=O)c3ccc(N4CCN(C)CC4)s3)[nH]n2)cc(OC)c1` [Example 106, N-[5-[2-(3,5-dimethoxyphenyl)ethyl]-2H-pyrazol-3-yl]-5-(4-methylpiperazin-1-yl)thiophene-2-carboxamide] came in with a half-maximal inhibitory concentration (IC50) of 1 nM.

Take `COc1cc(COc2cc(NC(=O)c3cnc(N4CCN5CCCC5C4)cn3)[nH]n2)cc(OC)c1` (stereo not drawn) [Example 122, 5-(3,4,6,7,8,8a-Hexahydro-1H-pyrrolo[2,1-c]pyrazin-2-yl)-N-[5-[(3,5-dimethoxyphenyl)methoxy]-2H-pyrazol-3-yl]pyrazine-2-carboxamide]: the IC50 amounted to 1.3 nM. This IC50 and that of the molecule before are within 1.5-fold of each other.

`COc1cc(COc2cc(NC(=O)c3cnc(N4CCN(C5CC5)CC4)cn3)[nH]n2)cc(OC)c1` [Example 109, 5-(4-Cyclopropylpiperazin-1-yl)-N-[5-[(3,5-dimethoxyphenyl)methoxy]-2H-pyrazol-3-yl]pyrazine-2-carboxamide] gave an IC50 of 3 nM. The molecule `COc1cc(COc2cc(NC(=O)c3cnc(N4C[C@@H](C)N(C)[C@@H](C)C4)nc3)[nH]n2)cc(OC)c1` [Example 138, N-(3-(3,5-dimethoxybenzyloxy)-1H-pyrazol-5-yl)-2-((3R,5S)-3,4,5-trimethylpiperazin-1-yl)pyrimidine-5-carboxamide] showed an IC50 of 2.6 nM. With `COc1cc(COc2cc(NC(=O)c3cnc(N4CCN(C)C(C)C4)cn3)[nH]n2)cc(OC)c1` (stereo not drawn) [Example 124, N-[5-[(3,5-Dimethoxyphenyl)methoxy]-2H-pyrazol-3-yl]-5-(3,4-dimethylpiperazin-1-yl)pyrazine-2-carboxamide], the concentration for half-maximal inhibition (IC50) was 1.5 nM. `COc1cc(CCc2cc(NC(=O)c3ccc(N4CCCNCC4)cc3)[nH]n2)cc(OC)c1` [Example 145, 4-(1,4-diazepan-1-yl)-N-[5-[2-(3,5-dimethoxyphenyl)ethyl]-2H-pyrazol-3-yl]benzamide] yielded an IC50 of 0.7 nM. In turn, `COc1cc(CCc2cc(NC(=O)c3cnc(N4CCN[C@@H](C(C)C)C4)nc3)[nH]n2)cc(OC)c1` [Example 149, N-[5-[2-(3,5-dimethoxyphenyl)ethyl]-2H-pyrazol-3-yl]-2-[(3S)-3-propan-2-ylpiperazin-1-yl]pyrimidine-5-carboxamide] had an IC50 of 4.4 nM. This IC50 is about 6.3-fold higher than that of the molecule before. As for `COc1cc(CCc2cc(NC(=O)c3ccc(N4CCNC(C)(C)C4)cc3)[nH]n2)cc(OC)c1` [Example 139, N-[5-[2-(3,5-dimethoxyphenyl)ethyl]-2H-pyrazol-3-yl]-4-(3,3-dimethylpiperazin-1-yl)benzamide], the figure is 0.47 nM; as for `COc1cc(CCc2cc(NC(=O)c3ccc(N4CCCN(C5CC5)CC4)cc3)[nH]n2)cc(OC)c1` [Example 165, 4-(4-cyclopropyl-1,4-diazepan-1-yl)-N-[5-[2-(3,5-dimethoxyphenyl)ethyl]-2H-pyrazol-3-yl]benzamide], 0.064 nM. For `COc1cc(COc2cc(NC(=O)c3cnc(N4CCN5CCCCC5C4)nc3)[nH]n2)cc(OC)c1` (stereo not drawn) [Example 119, 2-(1,3,4,6,7,8,9,9a-Octahydropyrido[2,1-c]pyrazin-2-yl)-N-[5-[(3,5-dimethoxyphenyl)methoxy]-2H-pyrazol-3-yl]pyrimidine-5-carboxamide] the value was 3.3 nM; for `COc1cc(CCc2cc(NC(=O)c3cnc(N4CCN(C)C(=O)C4)nc3)[nH]n2)cc(OC)c1` [Example 150, N-[5-[2-(3,5-dimethoxyphenyl)ethyl]-2H-pyrazol-3-yl]-2-(4-methyl-3-oxopiperazin-1-yl)pyrimidine-5-carboxamide], 12 nM; for `COc1cc(COc2cc(NC(=O)c3ccc(N4CCN(C)CC4)s3)[nH]n2)cc(OC)c1` [Example 107, N-[5-[(3,5-dimethoxyphenyl)methoxy]-2H-pyrazol-3-yl]-5-(4-methylpiperazin-1-yl)thiophene-2-carboxamide], 1.1 nM. As for `COc1cc(CCc2cc(NC(=O)c3cnc(N4CCCN(C5CC5)CC4)cn3)[nH]n2)cc(OC)c1` [Example 174, 5-(4-cyclopropyl-1,4-diazepan-1-yl)-N-[5-[2-(3,5-dimethoxyphenyl)ethyl]-2H-pyrazol-3-yl]pyrazine-2-carboxamide], the IC50 is 3.7 nM. `COc1cc(CCc2cc(NC(=O)c3ccc(N4CCCN(C(C)C)CC4)cc3)[nH]n2)cc(OC)c1` [Example 166, N-[5-[2-(3,5-dimethoxyphenyl)ethyl]-2H-pyrazol-3-yl]-4-(4-propan-2-yl-1,4-diazepan-1-yl)benzamide] displayed an IC50 of 0.7 nM. Consider `COc1cc(CCc2cc(NC(=O)c3cnc(N4C[C@@H](C)N(C)[C@@H](C)C4)cn3)[nH]n2)cc(OC)c1` [Example 125, N-[5-[2-(3,5-dimethoxyphenyl)ethyl]-2H-pyrazol-3-yl]-5-[(3R,5S)-3,4,5-trimethylpiperazin-1-yl]pyrazine-2-carboxamide], for which the midpoint of inhibition, the IC50, lay at 1.7 nM. In the case of `COc1cc(COc2cc(NC(=O)c3ccc(N4CCN(C5CCC5)CC4)cc3)[nH]n2)cc(OC)c1` [Example 118, 4-(4-Cyclobutylpiperazin-1-yl)-N-[5-[(3,5-dimethoxyphenyl)methoxy]-2H-pyrazol-3-yl]benzamide], the IC50 was 1.1 nM. The molecule `C=CCN1CCC(c2ccc(C(=O)Nc3cc(CCc4cc(OC)cc(OC)c4)n[nH]3)cc2)CC1` [Example 144, N-[5-[2-(3,5-dimethoxyphenyl)ethyl]-2H-pyrazol-3-yl]-4-(1-prop-2-enylpiperidin-4-yl)benzamide] had an IC50 of 0.041 nM. Turning to `COc1cc(COc2cc(NC(=O)c3cnc(N4C[C@@H](C)N(C)[C@@H](C)C4)cn3)[nH]n2)cc(OC)c1` [Example 130, N-[5-[(3,5-dimethoxyphenyl)methoxy]-2H-pyrazol-3-yl]-5-[(3R,5S)-3,4,5-trimethylpiperazin-1-yl]pyrazine-2-carboxamide], 0.59 nM corresponded to half-maximal inhibition (IC50).

In turn, `CCN1CCCN(c2ccc(C(=O)Nc3cc(CCc4cc(OC)cc(OC)c4)n[nH]3)cc2)CC1` [Example 170, N-[5-[2-(3,5-dimethoxyphenyl)ethyl]-2H-pyrazol-3-yl]-4-(4-ethyl-1,4-diazepan-1-yl)benzamide] had a 50% inhibitory concentration (IC50) of 0.71 nM.
